This passage reports EC50 and AC50 results from ChEMBL document CHEMBL1201862, “PubChem BioAssay data set” (2004).

The EC50 is the concentration giving half of the maximal effect. One may read the AC50 as the midpoint of the concentration-response curve, whichever way the signal moves.

The subject of test [1] is Streptococcus sp. 'group A'. In words: growth inhibition of control SK(-) GAS strain, dose response, counter-screen for streptokinase expression inhibitor project, luminescence, kanamycin, BacTiterGlo, confirmation (AID 1900). The test is classed as functional, organism-based.
The next test has as its target T1, Streptokinase A (Streptococcus pyogenes serotype M1, UniProt P10520).
T1 sequence (P10520 whole entry): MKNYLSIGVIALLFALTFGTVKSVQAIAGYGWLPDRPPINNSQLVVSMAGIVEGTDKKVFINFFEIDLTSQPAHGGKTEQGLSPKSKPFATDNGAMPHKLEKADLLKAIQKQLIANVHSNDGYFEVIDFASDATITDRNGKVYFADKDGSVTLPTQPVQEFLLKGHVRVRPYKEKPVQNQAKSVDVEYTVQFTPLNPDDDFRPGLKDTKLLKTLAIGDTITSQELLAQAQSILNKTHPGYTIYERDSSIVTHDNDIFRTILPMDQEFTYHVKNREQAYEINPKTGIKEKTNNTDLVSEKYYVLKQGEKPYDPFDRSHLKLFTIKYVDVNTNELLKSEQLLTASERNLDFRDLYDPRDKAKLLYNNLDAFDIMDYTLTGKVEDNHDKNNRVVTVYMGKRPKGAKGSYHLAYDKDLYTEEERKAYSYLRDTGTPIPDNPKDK
The test can be described thus: S. pyogenes streptokinase expression inhibitors, potency, dose response, plasminogen activation absorbance, OD405 (AID 1914).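 Also: secreted streptokinase activity via plasminogen activation per viability signal from cell pellet.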 The test is classed as functional, Streptococcus pyogenes M1 GAS.

The next test has as its system Streptococcus. The test can be described thus: Group A Streptococcus viability loss, dose response, counter-screen for streptokinase expression inhibitor project, luminescence, BacTiterGlo (AID 1915).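 Also: potency for reduction of bacterial viability or growth.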 The class given is functional, organism-based.
The nature of test [2]: inhibitors of intracellular T. cruzi replication, confirmation, NIH3T3 host cells, beta-gal luminescence (AID 2044).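 Also: intracellular parasites grown in NIH/3T3 mouse fibroblasts as host cells; luminescent beta-galactosidase reporter signal from transgenic T. cruzi replicating inside host cells; inhibitors lower the luminescence signal.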 The class given is functional, cell-based.
Test [3] in a line: cytotoxicity toward NIH3T3 fibroblasts, dose response, counter-screen, cell-based, ATP luminescence, mouse fibroblasts (AID 2010).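 Also: cells exposed to compound for about 90 hours before reading.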 The class given is functional. (Counterscreens check selectivity or assay interference.)
The target of another test is Cytochrome P450 2C9 (Homo sapiens, UniProt P11712).
Another test has as its target Cytochrome P450 3A4 (Homo sapiens, UniProt P08684).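 Also: CYP3A4 tested as one member of a cytochrome P450 panel screen.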
In a further test the target is T2, Cytochrome P450 1A2 (Homo sapiens, UniProt P05177).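 Also: PubChem cytochrome P450 panel assay, CYP1A2 panel member.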
T2 sequence (P05177 whole entry): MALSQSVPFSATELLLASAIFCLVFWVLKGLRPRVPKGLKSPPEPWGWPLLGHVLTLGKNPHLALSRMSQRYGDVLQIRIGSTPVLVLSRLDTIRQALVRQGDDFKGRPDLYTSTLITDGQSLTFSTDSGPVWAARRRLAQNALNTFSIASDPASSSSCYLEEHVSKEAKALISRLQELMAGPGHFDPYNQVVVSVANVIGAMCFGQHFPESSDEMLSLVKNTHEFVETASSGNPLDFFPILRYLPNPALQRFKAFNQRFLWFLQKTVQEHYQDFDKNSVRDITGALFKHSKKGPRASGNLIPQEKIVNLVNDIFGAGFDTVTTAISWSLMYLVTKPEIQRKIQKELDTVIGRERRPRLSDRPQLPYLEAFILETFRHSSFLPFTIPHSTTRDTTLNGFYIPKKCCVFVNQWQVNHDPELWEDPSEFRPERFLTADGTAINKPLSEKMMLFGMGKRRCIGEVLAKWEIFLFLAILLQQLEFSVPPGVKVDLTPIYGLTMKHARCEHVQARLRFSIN

Active and inactive are the calls of the source. Rule as the data show it, for most assays here: actives have a measured EC50 and inactives only a lower limit.

Chain of Cytochrome P450 3A4 (P08684 whole entry): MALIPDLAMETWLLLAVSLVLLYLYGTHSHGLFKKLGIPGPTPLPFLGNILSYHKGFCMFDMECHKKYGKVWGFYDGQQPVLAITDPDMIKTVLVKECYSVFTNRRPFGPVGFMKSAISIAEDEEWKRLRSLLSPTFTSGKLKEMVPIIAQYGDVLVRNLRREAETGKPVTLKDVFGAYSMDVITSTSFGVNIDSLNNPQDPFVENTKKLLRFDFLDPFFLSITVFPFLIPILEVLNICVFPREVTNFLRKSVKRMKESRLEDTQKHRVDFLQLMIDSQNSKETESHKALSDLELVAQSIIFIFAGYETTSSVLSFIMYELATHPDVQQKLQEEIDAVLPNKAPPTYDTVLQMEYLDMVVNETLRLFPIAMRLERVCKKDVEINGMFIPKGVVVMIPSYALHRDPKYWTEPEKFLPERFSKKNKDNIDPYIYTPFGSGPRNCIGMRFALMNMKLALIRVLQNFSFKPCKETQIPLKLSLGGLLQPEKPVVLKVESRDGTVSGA
Chain of Cytochrome P450 2C9 (P11712 whole entry): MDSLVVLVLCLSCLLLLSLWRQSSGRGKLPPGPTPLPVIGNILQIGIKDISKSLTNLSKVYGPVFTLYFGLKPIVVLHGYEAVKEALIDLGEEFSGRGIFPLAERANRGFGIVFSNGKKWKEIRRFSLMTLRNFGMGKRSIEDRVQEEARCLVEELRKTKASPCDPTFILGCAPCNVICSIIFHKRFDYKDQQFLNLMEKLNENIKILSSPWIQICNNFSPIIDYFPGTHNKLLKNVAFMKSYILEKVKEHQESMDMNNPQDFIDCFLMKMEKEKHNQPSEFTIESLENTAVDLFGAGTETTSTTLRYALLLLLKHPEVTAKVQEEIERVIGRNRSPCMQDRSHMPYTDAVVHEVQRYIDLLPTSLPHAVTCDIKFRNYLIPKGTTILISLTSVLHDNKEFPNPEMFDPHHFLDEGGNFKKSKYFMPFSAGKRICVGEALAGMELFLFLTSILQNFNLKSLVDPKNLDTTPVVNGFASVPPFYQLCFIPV

For `O=C(Nc1nnc(C2=COCCO2)o1)c1ccc([N+](=O)[O-])s1`, the half-maximal effective concentration (EC50) in test [1] is 18.1 µM (active); on Streptokinase A, > 150 µM (not active); in the test with Streptococcus, > 150 µM (not active).
Take `CCCCNc1c(-c2ccc(SC3CCCCC3)c(OC)c2)nc2ccc(Cl)cn12`: the EC50 is 1.43 µM (active) in test [2] and > 60 µM (not active) in test [3].
For `Cc1nc2cnc(N(C)C)nc2n(C2CC2)c1=O`, the AC50 at Cytochrome P450 2C9 was 15.8 µM (inconclusive).
`Cc1ccc2c(c1)N(CCC(=O)NCc1ccc3c(c1)OCO3)C(=O)CO2`: the AC50 on Cytochrome P450 2C9 is 0.00562 µM (inconclusive).
As for `C/C(=C\c1ccc(Cl)cc1)C(C)(C)C(=O)O`, at Cytochrome P450 2C9, the AC50 was 3.16 µM (inconclusive).
Take `Cc1ccc(NC(=S)N(CCCN2CCOCC2)Cc2cccnc2)cc1C`: the EC50 was 1.19 µM (active) in test [2] and 10.9 µM (active) in test [3].
`CSc1nsc(SC)c1NC(=O)Nc1ccccn1`: the AC50 at Cytochrome P450 2C9 is 22.4 µM (inconclusive).
For the molecule `COc1ccc(NC(=O)N2CC[C@@]3(CCCN(C(=O)c4csnn4)C3)C2)cc1`, the AC50 at Cytochrome P450 3A4 was 31.6 µM (inconclusive).
`COC(=O)C/C=C\[C@@H](C)[C@@H](/C=N\OCC[C@H]1C=C[C@H](OC(C)=O)[C@@H](COC(C)=O)O1)NS(=O)(=O)c1ccc(C)cc1`: on Cytochrome P450 2C9, the AC50 is 5.01 µM (inconclusive).
For `Cc1ccc(CN2CC34C=CC(O3)C(C(=O)NCc3ccco3)C4C2=O)cc1` (stereo not given), the AC50 at Cytochrome P450 1A2 is 20 µM (inconclusive).
As to `c1ccc2c(NC3C4CC5CC(C4)CC3C5)nc(N3CCOCC3)nc2c1` (stereo not given), the EC50 was 1.39 µM (active) in test [2] and > 30 µM (not active) in test [3].
Take `CCc1ccc(NC(=O)CSc2nc3cc(C(=O)OC)ccc3c(=O)n2Cc2ccco2)cc1`: the results for the AC50 at Cytochrome P450 3A4 and at Cytochrome P450 2C9 were 3.98 µM (inconclusive) and 28.2 µM (inconclusive), respectively.
Turning to `COc1ccc(OC)c(NC(=O)Cn2cccc2)c1`, the AC50 was 15.8 µM (inconclusive) at Cytochrome P450 3A4 and 31.6 µM (inconclusive) on Cytochrome P450 2C9.
As to `COc1ccc(CC(=O)Nc2nc(-c3ccncc3)cs2)cc1`, the figures for the EC50 in test [2] and in test [3] were 2.74 µM (active) and > 60 µM (not active), respectively.
In the case of `O=C(Nc1ccccc1)c1ccccc1CC[N+](=O)[O-]`, the AC50 on Cytochrome P450 3A4 is 7.94 µM (inconclusive).
Take `N#CCCn1c(=O)c(-c2cc(F)cc(F)c2)nc2cnc(N3CCOCC3)nc21`: the figures for the half-maximal activity concentration (AC50) at Cytochrome P450 1A2 and on Cytochrome P450 3A4 were 3.16 µM (inconclusive) and 20 µM (inconclusive), respectively.
Consider `Cc1nn(Cc2cccc(Oc3ccccc3)c2)c(C)c1NC(=O)NC12CC3CC(CC(C3)C1)C2`, for which the EC50 is 1.29 µM (active) in test [2] and > 60 µM (not active) in test [3].
For the molecule `Cc1ccc(S(=O)(=O)Nc2ccccc2C(=O)c2ccc(C)c(C)c2)cc1`, at Cytochrome P450 1A2, the AC50 is 0.631 µM (inconclusive).
As for `O=C(c1ccncc1)N1CCC2(CC1)CCN(c1ncccn1)CC2`, at Cytochrome P450 1A2, the concentration at half-maximal activity (AC50) is 20 µM (inconclusive).
For `CC(C)c1ccc2oc(-c3cc(N)ccc3O)nc2c1`, the EC50 was 2.88 µM (active) in test [2] and 10.8 µM (active) in test [3].
As to `CCOC(=O)c1nn(-c2ccccc2)c(-c2ccccc2)c1C(=O)c1ccccc1`, the AC50 at Cytochrome P450 3A4 was 15.8 µM (inconclusive).
Regarding `COc1ccc(O[C@H]2C=C[C@@H](c3ccccc3)O[C@@H]2CON=C(C)C)cc1`, at Cytochrome P450 3A4, the AC50 is 3.98 µM (inconclusive).
Consider `C[C@@H](C(=O)NCCF)[C@H]1C[C@]1(C)[C@H](NC(=O)OCc1ccccc1)c1ccccc1`, for which the AC50 at Cytochrome P450 1A2 is 15.8 µM (inconclusive); on Cytochrome P450 2C9, 25.1 µM (inconclusive).
`CCOC(=O)c1cc2c(ccn2C)n1CC(=O)N1CCCC(C)C1` (stereo not given): at Cytochrome P450 1A2, the AC50 is 20 µM (inconclusive).
Turning to `CC(=O)OC[C@H]1O[C@@H](O/N=C(\C)CCN2CCc3nc(-c4ccccc4)c(-c4ccccc4)cc3C2)[C@H](OC(C)=O)[C@@H](OC(C)=O)[C@H]1OC(C)=O`, the concentration at half-maximal activity (AC50) on Cytochrome P450 3A4 was 5.01 µM (inconclusive).
As to `Cc1cccc(NC(=O)Cn2cccc2)c1`, the AC50 on Cytochrome P450 3A4 was 22.4 µM (inconclusive).
Consider `Cc1cc(C)n2nc(-c3ccsc3-n3c(C)ccc3C)cc2n1`, for which the EC50 in test [2] is 2.77 µM (active); in test [3], > 60 µM (not active).
The like results for `Cc1cc(C)cc(Nc2c([N+](=O)[O-])nn(-c3ccc4c(c3)OCCO4)[n+]2[O-])c1` were, in that order, 0.16 µM (active) and > 60 µM (not active).
`Cc1ccc(S(=O)(=O)N[C@H]2COC(=O)[C@H](C)COC(=O)[C@H](C)NC(=O)C/C=C\[C@H]2C)cc1`: the AC50 on Cytochrome P450 3A4 was 3.98 µM (inconclusive).
`COc1ccc(/C=C/C(=O)Nc2cc(C)nn2-c2nc3ccccc3[nH]2)cc1`: the EC50 in test [2] was 1.71 µM (active); in test [3] it was 9.28 µM (active).
With `OC(COc1ccc(OCc2ccccc2)cc1)CN1CCCCC1` (stereo not given), the concentration giving a half-maximal response (EC50) was 21.4 µM (active) in test [2] and > 60 µM (not active) in test [3].
Regarding `O=[N+]([O-])c1ccc(S(=O)(=O)Nc2ccc(-c3ccc(N4CCCC4)nn3)cc2)cc1`, the half-maximal effective concentration (EC50) in test [2] is 0.159 µM (active); in test [3] it was > 60 µM (not active).
As for `COC(=O)C[C@@H]1O[C@H]1[C@H](C)[C@@H](OC)C(C)C`, the AC50 at Cytochrome P450 2C9 was 3.16 µM (inconclusive).
With `CN(C)C(=O)c1ccc(-c2cc(N(C)Cc3ccco3)ncn2)cc1`, the AC50 at Cytochrome P450 1A2 was 25.1 µM (inconclusive).
As for `CCOc1ccc(CN2CCN(Cc3cnc(-c4ccccc4)s3)CC2CCO)cc1` (stereo not given), the 50% effective concentration (EC50) in test [2] is 0.201 µM (active); in test [3] it was > 60 µM (not active).
Take `COc1ccc(-c2nc3cnc(N4CCN(C)CC4)nc3n(-c3ccc(OC)cc3)c2=O)cc1`: the AC50 at Cytochrome P450 1A2 was 15.8 µM (inconclusive); at Cytochrome P450 2C9, 39.8 µM (inconclusive).
Consider `COc1ncc2nc(-c3cc(F)cc(F)c3)c(=O)n(-c3ccccc3)c2n1`, for which the AC50 at Cytochrome P450 1A2 is 1.26 µM (inconclusive).
The same measure, in the same setting: with `O=c1c(-c2cc(F)cc(F)c2)nc2cnc(N3CCOCC3)nc2n1C1CC1` the figure was 1 µM (inconclusive).
For the molecule `CC(=O)N1CCC[C@@]2(CCN(c3ccccc3)C2)C1`, the AC50 at Cytochrome P450 3A4 was 25.1 µM (inconclusive).
Turning to `Cc1ccc(Cn2nnc3c(=O)[nH]c(C4CCN(S(=O)(=O)c5cc(C)ccc5C)CC4)nc32)cc1`, on Streptokinase A, the 50% effective concentration (EC50) is 21.4 µM (active).
`Cc1ccc(Cn2nnc3c(O)nc(C4CCN(S(=O)(=O)c5cc(C)ccc5C)CC4)nc32)cc1`: the EC50 in test [1] was 9.94 µM (active); with Streptococcus, 96 µM (active).
Regarding `CCOc1ccc(C(F)(F)F)cc1NC(C)=O`, the AC50 at Cytochrome P450 2C9 was 31.6 µM (inconclusive).
As for `O=c1ccn([C@@H]2O[C@@H](COP(=O)(O)OP(=O)(O)O)[C@H](O)[C@@H]2O)c(=O)[nH]1`, the AC50 at Cytochrome P450 3A4 is 0.794 µM (inconclusive).
Turning to `COCCCNCCCOc1ccc(C(C)(C)c2ccccc2)cc1`, the values for the EC50 in test [2] and in test [3] were 0.567 µM (active) and > 60 µM (inconclusive), respectively.
Take `CC(=O)N(CCCN(C)C)CCC(C)CCC=C(C)C` (stereo not given): the values for the EC50 in test [2] and in test [3] were 0.324 µM (active) and > 60 µM (not active), respectively.
For the molecule `COc1ccc(-c2cc3nc[nH]c(=O)c3s2)cc1`, on Streptokinase A, the half-maximal effective concentration (EC50) is reported as > 150 µM (not active).
With `COc1ccc(-c2cc3ncnc(O)c3s2)cc1`, the results for the EC50 (in test [1]; in the test with Streptococcus) were 3.63 µM (active) and 17.8 µM (active), respectively.
On to `O=C(NNC(=O)c1ccccc1)C(=O)N1CCCCC1`, for which the AC50 on Cytochrome P450 2C9 was 0.00562 µM (inconclusive).
Take `CN(c1ccc(C(=O)NC2CC3CCC2C3)cc1)S(C)(=O)=O` (stereo not given): the AC50 at Cytochrome P450 3A4 was 15.8 µM (inconclusive).
With `COc1cc(/C=N/N=c2\[nH]c3ccccc3s2)cc([N+](=O)[O-])c1O`, the 50% effective concentration (EC50) on Streptokinase A was > 150 µM (not active).
Turning to `COc1cc(/C=N/Nc2nc3ccccc3s2)cc([N+](=O)[O-])c1O`, the EC50 in test [1] was 9.74 µM (active); in the test on Streptococcus, > 150 µM (not active).
For `C/C(N)=C(/C#N)C(=O)CSc1nc(-c2ccccc2)c(-c2ccccc2)o1`, the EC50 in test [2] is 1.43 µM (active); in test [3] it was > 60 µM (not active).
As for `C/C(Cn1cnc([N+](=O)[O-])n1)=N\NC(=O)c1ccccc1O`, the figures for the EC50 in test [2] and in test [3] were 1.73 µM (active) and > 60 µM (not active), respectively.
Take `Cc1ccccc1OCC(=O)N/N=C1\CCOc2c(C)cccc21`: the AC50 on Cytochrome P450 3A4 was 3.16 µM (inconclusive).
